Assay results taken from PMC12802956, “Dalbavancin dosing in a severely underweight person with prosthetic valve endocarditis: the critical role of proactive therapeutic drug monitoring” (Journal of Antimicrobial Chemotherapy, 2025).
Read-outs that look alike come from different tables or passages of the source.

Experiments:
[1] = Tolerability of earlier antibiotic therapy in the patient; type: in vivo, human; settings: single patient, treatment before the start of dalbavancin
Excerpt: (§1) We report the case of a patient who required initiation of dalbavancin therapy in November 2024 for infective endocarditis of a biological aortic valve (replaced April 2024) caused by Corynebacterium striatum. […] Due to a high surgical risk, the patient was deemed ineligible for repeat cardiac surgery.

[2] = cited from earlier work
Excerpt: As a result, severely underweight patients may theoretically be at risk of drug overexposure when treated with the conventional 1 ...

[3] = Therapeutic drug monitoring of dalbavancin plasma concentrations (Cmin, Cmax) in a severely underweight patient; type: in vivo, human
Protocol: Following multidisciplinary consultation, a dosing regimen of dalbavancin 1000 mg administered on day 1 and day 8 was initiated. Subsequent dosing intervals were guided based on TDM results, assessing both minimum (Cmin, within 1 h before the injection) and maximum (Cmax, 30–60 min after the end of infusion) dalbavancin plasma concentrations, as previously described.[3],[4] Cmin and Cmax values were incorporated into log-linear regression models by plotting the logarithm of dalbavancin plasma concentrations against time, to estimate individualized timing of subsequent doses, with the aim of maintaining Cmin levels above 8 mg/L (based on a breakpoint MIC of […]).[3–7],[9]
The quantification of dalbavancin plasma concentrations was performed using a previously validated liquid chromatography–tandem mass spectrometry method.[10] The volume of distribution was estimated as the ratio between the dalbavancin dose and the mean Cmax concentration. Written informed consent for all medical procedures and interventions performed in accordance with clinical practice was obtained from the patient.

Corynebacterium striatum = experiment: Clinical course of prosthetic aortic valve infective endocarditis under dalbavancin therapy; type: in vivo, human; settings: single patient
Excerpt: as §1
The eighth dalbavancin dose was scheduled 50 days after the previous administration.

Row | Compound | tolerability in the patient [1] | volume of distribution ([2]; normal-weight individuals) [L] | volume of distribution ([2]; obese individuals) [L] | volume of distribution ([2]; overweight individuals) [L] | Cmin (minimum dalbavancin plasma concentration) ([3]; patient, 28-38 kg, 1000 mg on day 1 and day 8, then TDM-guided intervals, seven administrations over 217 days, sampled within 1 h before the injection, plasma, LC-MS/MS, at each TDM assessment) | volume of distribution, range ([3]; severely underweight patient (28-38 kg), dose/Cmax, range over the observation period) [L] | mean volume of distribution ([3]; severely underweight patient (28-38 kg), ratio between dalbavancin dose and mean Cmax (30-60 min after end of infusion), plasma LC-MS/MS, mean ± spread over administrations) [L] | volume of distribution (approximate, as discussed) ([3]; severely underweight patient, markedly reduced compared with reported values) [L] | PET scan finding (Corynebacterium striatum; PET scan 6 months after initiation of dalbavancin therapy) | clinical status at last follow-up visit (Corynebacterium striatum; last follow-up visit after seven dalbavancin administrations, negative inflammatory markers)
1 | vancomycin | discontinued due to a cutaneous adverse reaction |  |  |  |  |  |  |  |  | 
2 | CN[C@H]1C(=O)N[C@@H]2Cc3ccc(cc3)Oc3cc4cc(c3O[C@@H]3O[C@H](C(=O)O)[C@@H](O)[C@H](O)[C@H]3NC(=O)CCCCCCCCC(C)C)Oc3ccc(cc3Cl)[C@@H](O)[C@@H]3NC(=O)[C@H](NC(=O)[C@@H]4NC(=O)[C@@H](NC2=O)c2cc(cc(O)c2Cl)Oc2cc1ccc2O)c1ccc(O)c(c1)-c1c(O[C@H]2O[C@H](CO)[C@@H](O)[C@H](O)[C@@H]2O)cc(O)cc1[C@@H](C(=O)NCCCN(C)C)NC3=O [dalbavancin, Dalbavancin] |  | 3 to 4 | 6 to 7 | 4 to 5 | exceeded 8 mg/L | 2.2 to 3.1 | 2.7 ± 0.4 | 2 to 3 | stability of the infectious process | no fever or signs of systemic infection
